Common to all, as to assay: relative viability (nuclei count vs DMSO), 5 days (fraction); higher = more cells survive
Compound in assay [1]: CC1=CC(=NN1)NC2=CC(=NC(=N2)/C=C/C3=CC=CC=C3)N4CCN(CC4)C + Cc1nc(Nc2ncc(C(=O)Nc3c(C)cccc3Cl)s2)cc(N2CCN(CCO)CC2)n1 [Dasatinib] (partner 0.075 µM)
The essentials:
(§1)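 Each reported value is a median over duplicate plates. It expresses relative viability: treated-well nuclei count divided by vehicle-well nuclei count. Lung cancer cell lines in 1536-well plates were dosed by pin tool a day after seeding, alone with one drug or with a fixed anchor-drug dose plus five library-drug doses (not always all listed) in √10 steps, and nuclei were counted after 5 days.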

Compound in assay [2]: CC1=CC(=NN1)NC2=CC(=NC(=N2)/C=C/C3=CC=CC=C3)N4CCN(CC4)C + CS(=O)(=O)N1CCN(Cc2cc3nc(-c4cccc5[nH]ncc45)nc(N4CCOCC4)c3s2)CC1 [Pictilisib] (partner 1 µM)
The procedure, abridged: as §1

Compound in assay [3]: CC(C)C[C@H](NC(=O)[C@H](Cc1ccccc1)NC(=O)c1cnccn1)B(O)O [Bortezomib] + C[C@]1(O)C[C@@H](c2nc(-c3ccc4ccc(-c5ccccc5)nc4c3)c3c(N)nccn32)C1 [Linsitinib] (partner 1 µM)
The procedure, abridged: as §1

Compound in assay [4]: CC(C)C[C@H](NC(=O)[C@H](Cc1ccccc1)NC(=O)c1cnccn1)B(O)O [Bortezomib] + CC(=O)Nc1cccc(-n2c(=O)n(C3CC3)c(=O)c3c(Nc4ccc(I)cc4F)n(C)c(=O)c(C)c32)c1 [Trametinib] (partner 0.02 µM)
The procedure, abridged: as §1

Here are results for 1 cell line from the supplement of paper PMC10307832.

Take NCI-H650: the relative viability in assay [1] (first compound 0.253 µM) amounted to 0.507; in assay [1] (first compound 0.8 µM) it was 0.517; in assay [1] (first compound 2.53 µM), 0.352; in assay [1] (first compound 8 µM), 0.195; in assay [2] (first compound 0.08 µM), 0.763; in assay [2] (first compound 0.253 µM), 0.92. The relative viability in assay [2] (first compound 0.8 µM) is 0.93; in assay [2] (first compound 2.53 µM), 0.719; in assay [2] (first compound 8 µM), 0.183; in assay [3] (first compound 0.000632 µM), 0.806; in assay [3] (first compound 0.002 µM), 0.811; in assay [3] (first compound 0.006325 µM), 0.338. In addition, the relative viability in assay [3] (first compound 0.02 µM) is 0.234; in assay [4] (first compound 0.0002 µM) it was 0.936; in assay [4] (first compound 0.000632 µM) it was 1.1; in assay [4] (first compound 0.002 µM), 0.857; in assay [4] (first compound 0.006325 µM), 0.361; in assay [4] (first compound 0.02 µM), 0.146.
